Key:
[1] = xn = mol fraction of the nth substance listed; conditions: 101.3 kPa, Liquid
[2] = 101.3 kPa, Liquid

CCCCCCCCCC [decane] + CCC(C)O
[1]
Conditions	mass density, 293.15 K [kg/m3]	mass density, 298.15 K [kg/m3]	mass density, 303.15 K [kg/m3]	speed of sound, 293.15 K [m/s]	speed of sound, 298.15 K [m/s]	speed of sound, 303.15 K [m/s]	viscosity, 293.15 K [mPa·s]	viscosity, 298.15 K [mPa·s]	viscosity, 303.15 K [mPa·s]
x2 = 0	729.9	726.1	722.3	1254	1235	1215	0.911	0.845	0.787
x2 = 0.0488	730.9	727.1	723.2	1250	1230	1210	0.9	0.833	0.774
x2 = 0.0992	732.4	728.5	724.6	1246	1226	1207	0.905	0.836	0.776
x2 = 0.2038	736.2	732.2	728.2	1240	1220	1201	0.926	0.854	0.791
x2 = 0.3041	740.4	736.4	732.4	1235	1215	1195	0.956	0.88	0.812
x2 = 0.3972	745	741	736.9	1230	1211	1191	1.008	0.922	0.847
x2 = 0.498	751	746.9	742.8	1227	1207	1187	1.09	0.989	0.901
x2 = 0.5972	758.1	754	749.8	1224	1204	1185	1.222	1.091	0.983
x2 = 0.703	767.5	763.3	759	1223	1203	1184	1.454	1.286	1.142
x2 = 0.8001	777.7	773.5	769.2	1224	1204	1185	1.787	1.548	1.351
x2 = 0.9002	790.5	786.4	782.1	1225	1207	1188	2.389	2.026	1.736
x2 = 0.9497	798.2	794	789.8	1228	1209	1191	2.879	2.418	2.047

CCCCCCCCCCCC [dodecane]
[2]
Conditions	mass density [kg/m3]	speed of sound [m/s]	viscosity [mPa·s]
293.15 K	748.5	1297	1.454
298.15 K	744.9	1278	1.327
303.15 K	741.3	1259	1.219

CCCCCCCCCCCC [dodecane] + CCC(C)O
[1]
Conditions	mass density, 293.15 K [kg/m3]	mass density, 298.15 K [kg/m3]	mass density, 303.15 K [kg/m3]	speed of sound, 293.15 K [m/s]	speed of sound, 298.15 K [m/s]	speed of sound, 303.15 K [m/s]	viscosity, 293.15 K [mPa·s]	viscosity, 298.15 K [mPa·s]	viscosity, 303.15 K [mPa·s]
x2 = 0	748.5	744.9	741.3	1297	1278	1259	1.454	1.327	1.219
x2 = 0.0486	749.3	745.6	741.9	1293	1274	1255	1.44	1.314	1.204
x2 = 0.0976	750.2	746.4	742.7	1289	1270	1251	1.431	1.305	1.194
x2 = 0.2046	752.5	748.7	744.9	1282	1263	1243	1.429	1.299	1.188
x2 = 0.2956	754.9	751.1	747.2	1276	1256	1237	1.432	1.297	1.179
x2 = 0.3959	758.1	754.2	750.3	1268	1249	1230	1.457	1.316	1.196
x2 = 0.4979	762.2	758.3	754.3	1261	1242	1222	1.503	1.351	1.22
x2 = 0.598	767.2	763.2	759.1	1255	1235	1216	1.603	1.425	1.276
x2 = 0.7021	773.9	769.8	765.6	1248	1229	1209	1.798	1.576	1.392
x2 = 0.8008	781.9	777.8	773.6	1242	1223	1204	2.068	1.785	1.566
x2 = 0.9002	792.7	788.5	784.3	1236	1217	1199	2.576	2.184	1.866
x2 = 0.9504	799.1	794.9	790.7	1233	1215	1196	2.989	2.508	2.122

CCCCCCCC [octane]
[2]
Conditions	mass density [kg/m3]	speed of sound [m/s]	viscosity [mPa·s]
293.15 K	702.6	1193	0.538
298.15 K	698.5	1173	0.506
303.15 K	694.5	1152	0.478

CCCCCCCC [octane] + CCC(C)O
[1], x2 = 0
Conditions	mass density [kg/m3]	speed of sound [m/s]	viscosity [mPa·s]
293.15 K	702.6	1193	0.538
298.15 K	698.5	1173	0.506
303.15 K	694.5	1152	0.478
